Drawing on PubChem BioAssay (NCI), this text covers TGI and GI50 for 21 molecules.

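Briefly, cells in 96-well plates were exposed to five compound concentrations for 48 h, and endpoints were estimated by linear interpolation. At the GI50, growth is halved. The concentration for full growth arrest is given as TGI.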 Some results are limits rather than exact numbers.

One assay concerns HL-60(TB) leukemia. The experiment in a line: inhibition of tumour cell growth, NCI panel, 48 h.
In turn, `O=C(O)Cn1ccc(=O)c2ccc([N+](=O)[O-])cc21` gave a TGI above 100 µM.

Turning to `CCCCCCCCCC[C@@H](O)[C@@H]1CC[C@H]([C@H]2CC[C@@H]([C@@H](O)CCCCCCCCCC[C@H]3CC(CC(C)=O)C(=O)O3)O2)O1` (stereo partly specified), the TGI is 2.29 µM.

For `C=C(CN1CCc2ccccc2C1)c1ccc(C(=O)Nc2cnccn2)cc1`, the GI50 was 3.55 µM and the TGI worked out at 14 µM.

For `CCOc1ccc2c(c1)[n+]([O-])c(S(=O)(=O)c1ccc(C)cc1)c(N)[n+]2[O-]`, the TGI is above 100 µM.

With `O=C1c2cccc(NCCN=Cc3cc(O)ccc3O)c2C(=O)c2c(NCCN=Cc3cc(O)ccc3O)cccc21`, the GI50 is 1.63 µM and the TGI was 4.19 µM.

Turning to `COc1ccc(CNc2cc(OC)c(OC)c(OC)c2)cc1`, the TGI was above 24.5 µM.

As to `CSc1cc(N=Nc2nc3ccccc3s2)c2ccccc2c1O`, the GI50 was 0.906 µM and the TGI is 25.5 µM.

For the molecule `O=C1NNC=Nc2ccc(cc2)S(=O)(=O)c2ccc(cc2)N=CNNC1=O`, the TGI was above 100 µM.

Molecule `CCCCCCCCCCCC(=O)CC(=O)c1c(O)cccc1O` gave a TGI above 100 µM.

On to `CN(C(=O)C12C3C4C1C1C2C3C41C(=O)C(C)(C)C)C(C)(C)C` (stereo unspecified), for which the TGI was above 100 µM.

On to `COc1cc(/C=C/c2cc(/C=C/c3ccc(O)c(OC)c3)n(-c3ccccc3)n2)ccc1O`, for which the GI50 is 0.271 µM and the TGI came out at 0.774 µM.

Regarding `Cc1ccc(-c2c3c([nH]c(=O)c2C#N)-c2cc(F)ccc2OC3)cc1`, the GI50 is 96.6 µM and the TGI was above 100 µM.

For the next assay, the system named is HOP-62 NSCLC. The assay can be described thus: inhibition of tumour cell growth, NCI panel, 48 h.
As to `CCc1c(Oc2ccc(C(C)=O)cc2)c2ccccc2[nH]c1=O`, the GI50 was 20.4 µM and the TGI is 74.3 µM.

For the molecule `Cc1nn(CN2CCN(C)CC2)c(=S)n1/N=C/c1cccc2ccccc12`, the GI50 was 20 µM and the TGI was 42.3 µM.

In the case of `Cc1ccc(CS/C(=C\c2ccc([N+](=O)[O-])cc2)C(=O)c2ccc(F)cc2)cc1`, the GI50 was 11.5 µM and the TGI amounted to 29.2 µM.

Regarding `CN1CCN(Cc2ccc(NC(=O)c3cncc(C#Cc4cnc(N)c5ccc(C#N)cc45)c3)cc2C(F)(F)F)CC1`, the GI50 is 0.0439 µM and the TGI is 0.927 µM.

In turn, `CC(=O)Nc1ccccc1Sc1ccccc1` yielded a TGI above 100 µM.

As to `COC(=O)C[C@H]1CCC2(OCCO2)[C@]1(C)C(=O)OC`, the TGI was above 100 µM.

The molecule `O=C(O)Cn1ccc(=O)c2ccc([N+](=O)[O-])cc21` yielded a TGI above 100 µM.

Consider `CCCCCCCCCC[C@@H](O)[C@@H]1CC[C@H]([C@H]2CC[C@@H]([C@@H](O)CCCCCCCCCC[C@H]3CC(CC(C)=O)C(=O)O3)O2)O1` (stereo partly specified), for which the TGI worked out at 31 µM.

With `C=C(CN1CCc2ccccc2C1)c1ccc(C(=O)Nc2cnccn2)cc1`, the GI50 is 27.1 µM and the TGI is above 100 µM.

For `CCOc1ccc2c(c1)[n+]([O-])c(S(=O)(=O)c1ccc(C)cc1)c(N)[n+]2[O-]`, the TGI was above 100 µM.

`O=C1c2cccc(NCCN=Cc3cc(O)ccc3O)c2C(=O)c2c(NCCN=Cc3cc(O)ccc3O)cccc21`: the GI50 is 1.28 µM and the TGI turned out to be 4.06 µM.

In turn, `COc1ccc(CNc2cc(OC)c(OC)c(OC)c2)cc1` came in with a TGI above 71.5 µM.

For `CSc1cc(N=Nc2nc3ccccc3s2)c2ccccc2c1O`, the GI50 is 10.2 µM and the TGI is 20 µM.

`O=C1NNC=Nc2ccc(cc2)S(=O)(=O)c2ccc(cc2)N=CNNC1=O`: the TGI is above 100 µM.

For `COc1cc2c3c(n(C)c(=O)c2cc1OC)-c1cc2c(cc1/C3=C\CCCN1C(=O)c3ccccc3C1=O)OCO2`, the GI50 was 19.2 µM and the TGI is above 40 µM.

Turning to `CCCCCCCCCCCC(=O)CC(=O)c1c(O)cccc1O`, the TGI is 48.9 µM.

Regarding `CN(C(=O)C12C3C4C1C1C2C3C41C(=O)C(C)(C)C)C(C)(C)C` (stereo unspecified), the TGI is above 100 µM.

`Cn1cc(-c2cnc3ccc(NC(=O)Nc4ccc(F)c(Br)c4)cc3n2)cn1`: the GI50 is 1.8 µM and the TGI came out at 3.84 µM.

For `COc1cc(/C=C/c2cc(/C=C/c3ccc(O)c(OC)c3)n(-c3ccccc3)n2)ccc1O`, the GI50 was 0.404 µM and the TGI amounted to 1.52 µM.

`O=C1CNCCCN2CCN(CCCNCC(=O)Nc3ccc(cc3)S(=O)(=O)c3ccc(cc3)NC(=O)CNCCCN3CCN(CCCNCC(=O)Nc4ccc(cc4)S(=O)(=O)c4ccc(cc4)N1)CC3)CC2` gave a TGI above 63.7 µM.

For the next assay, the system named is MALME-3M melanoma. The experiment in a line: inhibition of tumour cell growth, NCI panel, 48 h.
As to `CCc1c(Oc2ccc(C(C)=O)cc2)c2ccccc2[nH]c1=O`, the GI50 was 9.09 µM and the TGI was determined as 42.3 µM.

On to `Cc1ccc(CS/C(=C\c2ccc([N+](=O)[O-])cc2)C(=O)c2ccc(F)cc2)cc1`, for which the GI50 was 2.86 µM and the TGI was determined as 10.4 µM.

On to `CN1CCN(Cc2ccc(NC(=O)c3cncc(C#Cc4cnc(N)c5ccc(C#N)cc45)c3)cc2C(F)(F)F)CC1`, for which the GI50 is 0.0134 µM and the TGI turned out to be 0.0943 µM.

Regarding `CC(=O)Nc1ccccc1Sc1ccccc1`, the TGI was above 100 µM.

Regarding `COC(=O)C[C@H]1CCC2(OCCO2)[C@]1(C)C(=O)OC`, the TGI was above 100 µM.

`O=C(O)Cn1ccc(=O)c2ccc([N+](=O)[O-])cc21`: the TGI was above 100 µM.

`CCCCCCCCCC[C@@H](O)[C@@H]1CC[C@H]([C@H]2CC[C@@H]([C@@H](O)CCCCCCCCCC[C@H]3CC(CC(C)=O)C(=O)O3)O2)O1` (stereo partly specified) yielded a TGI of 19.1 µM.

For `CCOc1ccc2c(c1)[n+]([O-])c(S(=O)(=O)c1ccc(C)cc1)c(N)[n+]2[O-]`, the TGI is above 100 µM.

On to `COc1ccc(CNc2cc(OC)c(OC)c(OC)c2)cc1`, for which the TGI is above 100 µM.

In the case of `COc1cc2c3c(n(C)c(=O)c2cc1OC)-c1cc2c(cc1/C3=C\CCCN1C(=O)c3ccccc3C1=O)OCO2`, the GI50 was above 40 µM and the TGI is above 40 µM.

The molecule `CCCCCCCCCCCC(=O)CC(=O)c1c(O)cccc1O` showed a TGI of 32.6 µM.

`CN(C(=O)C12C3C4C1C1C2C3C41C(=O)C(C)(C)C)C(C)(C)C` (stereo unspecified) displayed a TGI above 100 µM.

In the case of `Cn1cc(-c2cnc3ccc(NC(=O)Nc4ccc(F)c(Br)c4)cc3n2)cn1`, the GI50 is 1.56 µM and the TGI came to 3.55 µM.

Turning to `O=C1CNCCCN2CCN(CCCNCC(=O)Nc3ccc(cc3)S(=O)(=O)c3ccc(cc3)NC(=O)CNCCCN3CCN(CCCNCC(=O)Nc4ccc(cc4)S(=O)(=O)c4ccc(cc4)N1)CC3)CC2`, the TGI amounted to 24.2 µM.
